The text below walks through data of patent US20040077580A1, “Antisense modulation of PI3K P85 Expression” (priority 2000, published 2004).

Strand notation (5' to 3'): a small letter for the sugar, then the base; units joined by * are phosphorothioate-linked, units joined directly phosphodiester-linked; [ ] holds rarer units or linkages, { } end groups; capitals alone tell only the bases. e = 2'-O-(2-methoxyethyl) (MOE); [5mC] = 5-methylcytosine; d = 2'-deoxy (DNA)

The test system of one data set is human PI3K p85 RNA. The experiment in a line: Inhibition of human PI3K p85 mRNA levels by antisense oligonucleotides, real-time quantitative PCR. The data set is classed as cell-based. The note with it: chimeric phosphorothioate oligonucleotides with 2′-MOE wings and deoxy gap, oligonucleotide 150 nM, averaged from two experiments. The protocol:
Cells were harvested 16 hours after oligonucleotide treatment.
Poly(A)+ mRNA was isolated according to Miura et al., Clin. Chem., 1996, 42, 1758-1764. Other methods for poly(A)+ mRNA isolation are taught in, for example, Ausubel, F. M. et al., Current Protocols in Molecular Biology, Volume 1, pp. 4.5.1-4.5.3, John Wiley & Sons, Inc., 1993. […] 60 μL lysis buffer (10 mM Tris-HCl, pH 7.6, 1 mM EDTA, 0.5 M NaCl, 0.5% NP-40, 20 mM vanadyl-ribonucleoside complex) was added to each well, the plate was gently agitated and then incubated at room temperature for five minutes. 55 μL of lysate was transferred to Oligo d(T) coated 96-well plates (AGCT Inc., Irvine Calif.). Plates were incubated for 60 minutes at room temperature, washed 3 times with 200 μL of wash buffer (10 mM Tris-HCl pH 7.6, 1 mM EDTA, 0.3 M NaCl). After the final wash, the plate was blotted on paper towels to remove excess wash buffer and then air-dried for 5 minutes. 60 μL of elution buffer (5 mM Tris-HCl pH 7.6), preheated to 70° C. was added to each well, the plate was incubated on a 90° C. hot plate for 5 minutes, and the eluate was then transferred to a fresh 96-well plate.
PI3K p85 probes and primers were designed to hybridize to the human PI3K p85 sequence, using published sequence information (GenBank accession number M61906, incorporated herein as SEQ ID NO: 1).
Target sites are indicated by nucleotide numbers, as given in the sequence source reference (Genbank accession no. M61906), to which the oligonucleotide binds. All compounds in Table 1 are oligodeoxynucleotides with phosphorothioate backbones (internucleoside linkages) throughout. […] Data are averages from two experiments. If present, “N.D.” indicates “no data”.
In accordance with the present invention, a second series of oligonucleotides targeted to human PI3K p85 were synthesized. Target sites are indicated by nucleotide numbers, as given in the sequence source reference (Genbank accession no. M61906), to which the oligonucleotide binds.
Cytidine residues in the 2′-MOE wings are 5-methylcytidines.
Data were obtained by real-time quantitative PCR as described in other examples herein and are averaged from two experiments. If present, “N.D.” indicates “no data”.
In the case of “28044 (antisense eA*e[5mC]*eA*eT*dT*dG*dA*dG*dG*dG*dA*dG*dT*dC*eG*eT*eT*eG) [compound 28044]”, the “% Inhibition of PI3K p85 mRNA levels” value is on record as 0%. Still for that read-out and setting: with “28046 (antisense eA*eT*e[5mC]*eA*dG*dA*dC*dT*dG*dG*dA*dG*dA*dG*eG*eA*eG*e[5mC]) [compound 28046]” the figure was 32%; with “28035 (antisense eA*eT*eT*eG*dG*dT*dC*dT*dC*dT*dC*dG*dT*dC*eT*eT*eT*e[5mC]) [compound 28035]”, 0%; with “28052 (antisense eA*eT*eT*e[5mC]*dT*dC*dC*dC*dA*dA*dA*dG*dC*dG*eT*e[5mC]*e[5mC]*e[5mC]) [compound 28052]”, 55%. Still for that read-out and setting: the figure for “28036 (antisense eT*e[5mC]*eA*eA*dC*dT*dT*dC*dT*dT*dT*dT*dG*dC*e[5mC]*eG*eA*eA) [compound 28036]” is 59%. As to “28055 (antisense eA*eA*e[5mC]*eT*dG*dA*dA*dA*dT*dA*dA*dC*dA*dA*e[5mC]*eT*eT*eA) [compound 28055]”, the “% Inhibition of PI3K p85 mRNA levels” value is 14%.

In the case of “28024 (antisense eG*eG*e[5mC]*eT*dG*dC*dT*dG*dA*dG*dA*dA*dT*dC*eT*eG*eA*eA) [compound 28024]”, the “% Inhibition of PI3K p85 mRNA levels” value turned out to be 59%. For “28017 (antisense eA*eT*e[5mC]*eT*dT*dC*dT*dT*dC*dT*dC*dT*dT*dT*e[5mC]*e[5mC]*eT*eT) [compound 28017]”, the “% Inhibition of PI3K p85 mRNA levels” value was determined as 59%. With “28034 (antisense eT*eT*e[5mC]*eA*dA*dG*dT*dC*dT*dT*dC*dT*dT*dC*e[5mC]*eA*eA*eT) [compound 28034]”, the “% Inhibition of PI3K p85 mRNA levels” value is given as 28%. With “28053 (antisense eT*eT*e[5mC]*eT*dG*dG*dC*dA*dC*dT*dT*dT*dC*dT*eA*eT*eG*eA) [compound 28053]”, the “% Inhibition of PI3K p85 mRNA levels” value is 0%. As to “28027 (antisense eT*eT*eA*eT*dT*dC*dA*dT*dA*dC*dC*dG*dT*dT*eG*eT*eT*eG) [compound 28027]”, the “% Inhibition of PI3K p85 mRNA levels” value came out at 45%. For “28025 (antisense eG*eT*eT*e[5mC]*dA*dT*dT*dC*dC*dA*dT*dT*dC*dA*eG*eT*eT*eG) [compound 28025]”, the “% Inhibition of PI3K p85 mRNA levels” value came out at 22%. On to “28038 (antisense eG*eT*e[5mC]*eT*dT*dC*dA*dG*dT*dG*dT*dT*dT*dT*e[5mC]*eA*eT*eT) [compound 28038]”, for which the “% Inhibition of PI3K p85 mRNA levels” value turned out to be 0%. Take “28045 (antisense eG*e[5mC]*e[5mC]*e[5mC]*dT*dT*dT*dG*dC*dT*dT*dT*dC*dC*eA*eG*eA*eG) [compound 28045]”: the “% Inhibition of PI3K p85 mRNA levels” value turned out to be 0%. Same read-out and setting: the figure for “28048 (antisense e[5mC]*eT*eG*e[5mC]*dC*dT*dC*dT*dC*dT*dC*dT*dC*dC*eT*e[5mC]*e[5mC]*eG) [compound 28048]” is 0%.

Consider “28033 (antisense eA*eT*e[5mC]*e[5mC]*dT*dT*dT*dG*dT*dA*dT*dT*dT*dC*eT*eT*eT*e[5mC]) [compound 28033]”, for which the “% Inhibition of PI3K p85 mRNA levels” value is 46%. Take “28051 (antisense eG*eA*e[5mC]*eG*dT*dG*dC*dC*dT*dT*dT*dC*dT*dG*e[5mC]*eT*eA*e[5mC]) [compound 28051]”: the “% Inhibition of PI3K p85 mRNA levels” value is 53%. The same measure, in the same setting: the figure for “28043 (antisense eA*eA*eA*eG*dC*dC*dA*dT*dA*dG*dC*dC*dA*dG*eT*eT*eG*e[5mC]) [compound 28043]” is 10%; for “28039 (antisense e[5mC]*eT*eT*eT*dG*dT*dT*dT*dC*dG*dG*dT*dT*dG*e[5mC]*eT*eG*e[5mC]) [compound 28039]” it is 46%. On the same count and under the same terms, with “28032 (antisense eT*eT*eT*e[5mC]*dT*dC*dA*dT*dT*dG*dC*dC*dT*dT*e[5mC]*eA*e[5mC]*eG) [compound 28032]” the figure was 35%; with “28054 (antisense e[5mC]*e[5mC]*eT*eT*dC*dA*dG*dC*dA*dA*dA*dA*dC*dA*eA*eA*eA*e[5mC]) [compound 28054]”, 0%; with “28029 (antisense eA*e[5mC]*e[5mC]*eA*dC*dA*dG*dA*dA*dC*dT*dG*dA*dA*eG*eG*eT*eT) [compound 28029]”, 57%. The same measure, in the same setting: with “28047 (antisense eA*eA*eA*eG*dA*dA*dG*dG*dG*dA*dT*dA*dA*dG*e[5mC]*eA*e[5mC]*eT) [compound 28047]” the figure was 18%; with “28019 (antisense eT*eT*e[5mC]*eA*dA*dT*dG*dG*dC*dT*dT*dC*dC*dA*e[5mC]*eG*eA*eG) [compound 28019]”, 6%. Take “28018 (antisense eG*e[5mC]*eT*eT*dC*dC*dT*dG*dT*dC*dC*dA*dT*dC*eA*e[5mC]*eT*eG) [compound 28018]”: the “% Inhibition of PI3K p85 mRNA levels” value was 47%. As for “28020 (antisense eA*eA*eT*eT*dC*dT*dG*dC*dC*dA*dG*dG*dT*dT*eG*e[5mC]*eT*eG) [compound 28020]”, the “% Inhibition of PI3K p85 mRNA levels” value stood at 12%.

The same data set, now with this note: phosphorothioate oligodeoxynucleotides, oligonucleotide 150 nM, averages from two experiments.
With “28004 (antisense ACATTGAGGGAGTCGTTG; DNA, all phosphorothioate, methylation of C not given here) [compound 28004]”, the “% Inhibition of PI3K p85 mRNA levels” value was determined as 0%.

As to “28013 (antisense TTCTGGCACTTTCTATGA; DNA, all phosphorothioate, methylation of C not given here) [compound 28013]”, the “% Inhibition of PI3K p85 mRNA levels” value was 28%. On the same count and under the same terms, the figure for “28016 (antisense CCAACAAAACAGTCCAAA; DNA, all phosphorothioate, methylation of C not given here) [compound 28016]” is 6%; for “28006 (antisense ATCAGACTGGAGAGGAGC; DNA, all phosphorothioate, methylation of C not given here) [compound 28006]” it is 27%; for “27986 (antisense dA*dG*dT*dA*dG*dG*dT*dT*dT*dT*dG*dG*dT*dG*dG*dT*dT*dT) [compound 27986]” it is 0%. The same measure, in the same setting: with “27996 (antisense TCAACTTCTTTTGCCGAA; DNA, all phosphorothioate, methylation of C not given here) [compound 27996]” the figure was 38%. Consider “28014 (antisense CCTTCAGCAAAACAAAAC; DNA, all phosphorothioate, methylation of C not given here) [compound 28014]”, for which the “% Inhibition of PI3K p85 mRNA levels” value was 24%. For “27991 (antisense CCGCTCTTGGGTCTGGCA; DNA, all phosphorothioate, methylation of C not given here) [compound 27991]”, the “% Inhibition of PI3K p85 mRNA levels” value was determined as 71%. The same measure, in the same setting: the figure for “28003 (antisense AAAGCCATAGCCAGTTGC; DNA, all phosphorothioate, methylation of C not given here) [compound 28003]” is 0%. Still for that read-out and setting: with “27994 (antisense TTCAAGTCTTCTTCCAAT; DNA, all phosphorothioate, methylation of C not given here) [compound 27994]” the figure was 15%; with “27989 (antisense ACCACAGAACTGAAGGTT; DNA, all phosphorothioate, methylation of C not given here) [compound 27989]”, 0%; with “27982 (antisense ATTTCACTGTAAACGGCT; DNA, all phosphorothioate, methylation of C not given here) [compound 27982]”, 19%. As to “27985 (antisense GTTCATTCCATTCAGTTG; DNA, all phosphorothioate, methylation of C not given here) [compound 27985]”, the “% Inhibition of PI3K p85 mRNA levels” value was 13%.

On to “27992 (antisense TTTCTCATTGCCTTCACG; DNA, all phosphorothioate, methylation of C not given here) [compound 27992]”, for which the “% Inhibition of PI3K p85 mRNA levels” value worked out at 0%. Same read-out and setting: with “28007 (antisense AAAGAAGGGATAAGCACT; DNA, all phosphorothioate, methylation of C not given here) [compound 28007]” the figure was 7%. The same measure, in the same setting: the figure for “27988 (antisense ATTCAGCATTTTGTAAGG; DNA, all phosphorothioate, methylation of C not given here) [compound 27988]” is 1%.
